According to the supplement of paper PMC10307832:

Tests used:
Test in all cases: relative viability (nuclei count vs DMSO), 5 days (fraction); higher = more cells survive
NVP-TAE684 + Palbociclib = compound: COc1cc(N2CCC(N3CCN(C)CC3)CC2)ccc1Nc1ncc(Cl)c(Nc2ccccc2S(=O)(=O)C(C)C)n1 [NVP-TAE684] + CC(=O)c1c(C)c2cnc(Nc3ccc(N4CCNCC4)cn3)nc2n(C2CCCC2)c1=O [Palbociclib] (partner 0.5 µM)
Summary of the method: (§1)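 Lung cancer cell lines in 1536-well plates got either a single drug or a fixed anchor-drug dose together with five library-drug doses (not always all listed) in √10 steps, by pin tool, on the day after seeding. Nuclei were counted after 5 days, and relative viability is the treated-to-vehicle ratio of nuclei counts. Values are medians of duplicate plates.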

[1] = compound: C1=CC=C2C(=C1)N=C(S2)C(C#N)C3=NC(=NC=C3)NCCC4=CN=CC=C4 + CS(=O)(=O)N1CCN(Cc2cc3nc(-c4cccc5[nH]ncc45)nc(N4CCOCC4)c3s2)CC1 [Pictilisib] (partner 1 µM)
Summary of the method: as §1

[2] = compound: C1=CC=C2C(=C1)N=C(S2)C(C#N)C3=NC(=NC=C3)NCCC4=CN=CC=C4 + C[C@@H](Oc1cc(-c2cnn(C3CCNCC3)c2)cnc1N)c1c(Cl)ccc(F)c1Cl [Crizotinib] (partner 1 µM)
Summary of the method: as §1

Vandetanib + Vorinostat = compound: COc1cc2/c(=N/c3ccc(Br)cc3F)nc[nH]c2cc1OCC1CCN(C)CC1 [Vandetanib] + O=C(CCCCCCC(=O)Nc1ccccc1)NO [Vorinostat] (partner 1 µM)
Summary of the method: as §1

EPLC-272H showed a relative viability (NVP-TAE684 + Palbociclib; first compound 0.2 µM) of 0.324, a relative viability (NVP-TAE684 + Palbociclib; first compound 0.6325 µM) of 0.321 and a relative viability (NVP-TAE684 + Palbociclib; first compound 2 µM) of 0.27. It also gave a relative viability ([1]; first compound 0.005 µM) of 0.271, a relative viability ([1]; first compound 0.01581 µM) of 0.277 and a relative viability ([1]; first compound 0.05 µM) of 0.288. The relative viability ([1]; first compound 0.1581 µM) was 0.352, the relative viability ([1]; first compound 0.5 µM) was 0.267 and the relative viability ([2]; first compound 0.005 µM) was 0.852. It also gave a relative viability ([2]; first compound 0.01581 µM) of 0.97, a relative viability ([2]; first compound 0.05 µM) of 0.868 and a relative viability ([2]; first compound 0.1581 µM) of 0.94. For the same cell line, the relative viability ([2]; first compound 0.5 µM) was 0.795, the relative viability (Vandetanib + Vorinostat; first compound 0.02 µM) was 0.41 and the relative viability (Vandetanib + Vorinostat; first compound 0.06325 µM) was 0.466. The relative viability (Vandetanib + Vorinostat; first compound 0.2 µM) was 0.447, the relative viability (Vandetanib + Vorinostat; first compound 0.6325 µM) was 0.441 and the relative viability (Vandetanib + Vorinostat; first compound 2 µM) was 0.447.
